Data published in patent publication US5612356A, “Heterocycle-containing carbonic acid derivatives” (Eisai Co., Ltd., priority 1992, dated 1997).

Assays:
HL60 cell = assay: Antagonism against all-trans retinoic acid in inducing the differentiation of HL60 cell (CD11b-positive cells, flow cytometry); assay type: cell-based; details: Homo sapiens, HL-60, 120 h, all-trans retinoic acid 30 nM, 5 days
From the text: Antagonism against all-trans retinoic acid in inducing the differentiation of HL60 cell
It has been known that a human promyelocytic leukemia cell strain HL60 is differentiated into granulocytic cells in the presence of all-trans retinoic acid (see Breitman, T., Selonick, S., and Collins, S., Proc. Natl. Acad. Sci. USA, 77, 2936(1980)). Generally, a cell forms a specific differentiation antigen on its surface, when it has achieved differentiation. When an HL60 cell is differentiated into a granulocytic cell, CD11b which is an antigen discriminating granulocyte or monocute is formed on the surface of the cell (see Fontana, J. A., Reppuci, A., Durham, J. P., and Mirand, D., Cancer Res. 46, 2469 to 2473 (1986)). The antagonism against the differentiation of HL60 into granulocytic cell which is induced by all-trans retionic acid was studied by utilizing the above phenomenon.
HL60 cells were cultured and maintained in a culture medium prepared by adding 10% of inactivated bovine fetus serum, 1 mM of sodium pyruvate, 50 μM of β-mercaptoethanol, 100 I.U./ml of penicillin and 100 μg/ml of streptomycin to RPMI1640 (a culture medium formulated in Rosewell Park Memorial Institute).
The resulting plate was incubated in an incubator (5% CO2 /air) for 5 days. After the incubation, the cells of each well were recovered into a test tube, followed by the addition thereto of an FITC-labeled monoclonal antibody reactive with CD11b which is an antigen specific to granulocyte or monocute. The resulting cells were immobilized with 0.2% paraformaldehyde. The immobilized cell suspension was examined by flow cytometry for the proportion of CD11b-positive cells in the above HL60 cell group in each well (see Miller, L. J., Schwarting, R., and Springer, T. A., J. Immunol. 137, 2891 to 2900 (1986)).

[1] = molecular target: T1, retinoic acid receptor (RAR) (Homo sapiens, UniProt P10276); assay: Receptor binding assay using human promyelocytic leukemia cell HL60 (nuclear extract), inhibition of 3H-all-trans retinoic acid binding to RAR; details: HL60 cell nucleus extract, 4° C., 16 hours
T1 construct: by the use of an extract from HL 60 cell nuclei; endogenous in cells; host or cells: HL60 human promyelocytic leukemia cells, 0.8 M KCl nuclear extract
T1 sequence (P10276 1-462): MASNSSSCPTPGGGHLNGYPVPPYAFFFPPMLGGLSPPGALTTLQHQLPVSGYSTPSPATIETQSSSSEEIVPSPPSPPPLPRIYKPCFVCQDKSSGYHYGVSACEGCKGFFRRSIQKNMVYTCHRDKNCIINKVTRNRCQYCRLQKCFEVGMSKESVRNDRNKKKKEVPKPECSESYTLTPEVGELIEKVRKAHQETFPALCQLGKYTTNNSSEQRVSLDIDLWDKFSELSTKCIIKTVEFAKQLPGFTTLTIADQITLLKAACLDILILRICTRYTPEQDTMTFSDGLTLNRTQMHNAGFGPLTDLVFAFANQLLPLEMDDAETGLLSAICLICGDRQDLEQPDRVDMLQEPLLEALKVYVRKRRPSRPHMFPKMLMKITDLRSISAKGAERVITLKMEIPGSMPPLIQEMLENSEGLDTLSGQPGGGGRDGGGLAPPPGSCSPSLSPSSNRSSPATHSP
Description: Receptor binding assay using human promyelocytic leukemia cell, HL60
It has been known that a receptor for all-trans retinoic acid [i.e., retinoic acid receptor (RAR)] is present in the nucleus of HL 60 cell (see Clara Nervi et al., Proc. Natl. Acad. Sci. USA, 86, 5854 (1989)). Therefore, the extent of specific binding of all-trans retionic acid to RAR was determined by the use of an extract from HL 60 cell nuclei; and the ability of each compound to bind to RAR was determined based on the inhibitory activity of the compound against the above specific binding.
The above cell nucleus extract was prepared as follows.
HL 60 cells (5×10^8) were suspended in 15 ml of a solution A [comprising 5 mM of sodium phosphate (pH: 7.4), 10 mM of monothioglycerol,10% (v/v) of glycerol, 1 mM of phenylmethylsulfonyl fluoride (PMSF), 10 μg/ml of aprotinin and 25 μg/ml of leupeptin). The obtained suspension was homogenized with a homogenizer and centrifuged to remove a formed supernatant. The obtained sediment was suspended in 15 ml of a solution B [comprising 10 mM of Tris-HCl (pH: 8.5), 10 mM of monothioglycerol, 10% (v/v) of glycerol, 1 mM of PMSF, 10 μg/ml of aprotinin, 25 μg/ml of leupeptin and 0.8 M of KC1]. The obtained suspension was allowed to stand at 4° C. for one hour and ultracentrifuged (under the conditions of 100,000×g and 4° C. for one hour). The supernatant thus obtained was stored in a state freezed at -80° C. and used as the cell nucleus extract [see Methods in Enzymology, 189: 248).
The receptor binding assay was conducted as follows.
180 μl of the above extract and 10 μl of a dilution of all-trans retionic acid or a compound to be tested were put in each well of a 96-well polypropylene plate, followed by the addition thereto of ^3 H-all-trans retionic acid in an amount of 10 μl/well. The plate was allowed to stand at 4° C. for 16 hours. A solution containing 3% of charcoal and 0.3% of dextran was added to the reaction mixture in the well and the obtained mixture was centrifuged to remove free ^3 H-all-trans retionic acid. The intensity of radiation of the supernatant was determined with a scintillation counter. The extent of specific binding of all-trans retinoic acid to RAR was determined by taking the intensity of radiation, observed when 200-fold excess of all-trans retinoic acid was added, as that of a nonspecific binding, and substracting the intensity of radiation thus taken from that of the one determined above.

Structure (SMILES) | IC50 (HL60 cell) [nM] | IC50 [1] [nM]
CCn1nc(-c2ccc(C(=O)O)cc2)c2c1-c1cc3c(cc1CC2)C(C)(C)CCC3(C)C [Example 1, 4-(1-Ethyl-4,5,7,8,9,10-hexahydro-7,7,10,10-tetramethylanthra[2,1-d]pyrazol-3yl)benzoic acid] | 700 | 4
CC(C)n1nc(-c2ccc(C(=O)O)cc2)c2c1-c1cc3c(cc1CC2)C(C)(C)CCC3(C)C [Example 2] | 6700 | 50
CC1(C)CCC(C)(C)c2cc3c(cc21)CCc1c(-c2ccc(C(=O)O)cc2)nn(Cc2ccccc2)c1-3 [Example 4] | 1000 | < 0.5
Cn1nc(-c2ccc(C(=O)O)cc2)c2c1-c1cc3c(cc1CC2)C(C)(C)CCC3(C)C [Example 7, 4-(4,5,7,8,9,10-Hexahydro-1,7,7,10,10-pentamethylanthra[2,1-d]pyrazol-3-yl)benzoic acid] | 560 | 22
Cn1nc(-c2ccc(C(=O)O)cc2)c2c1-c1cc3c(cc1SC2)C(C)(C)CCC3(C)C [Example 11] | 1200 | 9
Cn1nc(-c2ccc(C(=O)O)cc2)c2ccc3cc4c(cc3c21)C(C)(C)CCC4(C)C [Example 14, 4-(7,8,9,10-Tetrahydro-1,7,7,10,10-pentamethylanthra-[2,1-d]pyrazol-3-yl)benzoic acid] | 2200 | 50
CC1(C)CCC(C)(C)c2cc3c(cc21)CCc1c(-c2ccc(C(=O)O)cc2)cn(Cc2cccnc2)c1-3 [Example 16, 4-[4,5,7,8,9,10-Hexahydro-7,7,10,10-tetramethyl-1(3-pyridylmethyl)anthra[1,2-b]pyrrol-3-yl]benzoic acid] | 120 | < 0.5
CC1(C)CCC(C)(C)c2cc3c(cc21)CCc1c(-c2ccc(C(=O)O)cc2)cn(-c2ccccc2)c1-3 [Example 18] | 2700 | 4.2
CC1(C)CCC(C)(C)c2cc3c(cc21)CCc1c(-c2ccc(C(=O)O)cc2)cn(-c2cccnc2)c1-3 [Example 19] | 480 | 0.5
CCCCCn1cc(-c2ccc(C(=O)O)cc2)c2c1-c1cc3c(cc1CC2)C(C)(C)CCC3(C)C [Example 22] | 14000 | 32
CC1(C)CCC(C)(C)c2cc3c(cc21)CCc1c(-c2ccc(C(=O)O)cc2)coc1-3 [Example 106, 4-(4,5,7,8,9,10-Hexahydro-7,7,10,10-tetramethylanthra-[1,2-b]furan-3-yl)benzoic acid] | 3800 | 26
CCCCCCCOc1cc2c(cc1/C(C)=C/c1ccc(C(=O)O)cc1)C(C)(C)CCS2(=O)=O [Example R041-5253, reference compound] | 7200 | 9
